Reference: patent US20170210723A1, “MOLECULES HAVING PESTICIDAL UTILITY, AND INTERMEDIATES, COMPOSITIONS, AND PROCESSES, RELATED THERETO” (priority 2016, published 2017)

Tests used:
[1] = tested on: Beet Armyworm (Spodoptera exigua); test: Bioassays on BAW, 128-well diet tray assay; type: in vivo; settings: Spodoptera exigua, 168 h; 50 μg/cm^2 on artificial diet, second instar larvae, five to seven days; read-out: BAW % Control (or Mortality) rating
Experimental: Bioassays on BAW were conducted using a 128-well diet tray assay. One to five second instar BAW larvae were placed in each well (3 mL) of the diet tray that had been previously filled with 1 mL of artificial diet to which 50 μg/cm^2 of the test molecule (dissolved in 50 μL of 90:10 acetone-water mixture) had been applied (to each of eight wells) and then allowed to dry. Trays were covered with a clear self-adhesive cover and held at 25° C., 14:10 light-dark for five to seven days. Percent mortality was recorded for the larvae in each well; activity in the eight wells was then averaged. The results are indicated in the table entitled “Table ABC: Biological Results” (See Table Section).
(§1) Bioassays on BAW and CL were conducted according to the procedures outlined in Example A: Bioassays on Beet Armyworm (“BAW”) and Cabbage Looper (“CL”) using the indicated concentrations.

[2] = tested on: Cabbage Looper (Trichoplusia ni); test: Bioassays on CL, 128-well diet tray assay; type: in vivo; settings: Trichoplusia ni, 168 h; 50 μg/cm^2 on artificial diet, second instar larvae, five to seven days; read-out: CL % Control (or Mortality) rating
Experimental: Bioassays on CL were conducted using a 128-well diet tray assay.
One to five second instar CL larvae were placed in each well (3 mL) of the diet tray that had been previously filled with 1 mL of artificial diet to which 50 μg/cm^2 of the test molecule (dissolved in 50 μL of 90:10 acetone-water mixture) had been applied (to each of eight wells) and then allowed to dry. Trays were covered with a clear self-adhesive cover and held at 25° C., 14:10 light-dark for five to seven days. Percent mortality was recorded for the larvae in each well; activity in the eight wells was then averaged. The results are indicated in the table entitled “Table ABC: Biological Results” (See Table Section).
as §1

Row | Compound | mortality at 50 µg/cm2 [1] | mortality at 50 µg/cm2 [2]
1 | O=C(NCCS(=O)(=O)c1ccc(Cl)cc1)c1ccc(/C=C/C(c2cc(Cl)c(Cl)c(Cl)c2)C(F)(F)F)cc1Br (stereo not drawn) [F4, (E)-2-Bromo-N-(2-((4-chlorophenyl)sulfonyl)ethyl)-4-(4,4,4-trifluoro-3-(3,4,5-trichlorophenyl)but-1-en-1-yl)benzamide] | 50 to 100% | 50 to 100%
2 | O=C(NCCS(=O)(=O)CC(F)(F)F)c1ccc(/C=C/C(c2cc(Cl)c(Cl)c(Cl)c2)C(F)(F)F)cc1Br (stereo not drawn) [F10, (E)-2-Bromo-4-(4,4,4-trifluoro-3-(3,4,5-trichlorophenyl)but-1-en-1-yl)-N-(2-((2,2,2-trifluoroethyl)sulfonyl)ethyl)benzamide] | 50 to 100% | 50 to 100%
3 | CC(C)[C@H](C[S+]([O-])CC(F)(F)F)NC(=O)c1ccc(/C=C/C(c2cc(Cl)c(Cl)c(Cl)c2)C(F)(F)F)cc1C(F)(F)F (stereo partly drawn) [F15, N-((2R)-3-methyl-1-((2,2,2-trifluoroethyl)sulfinyl)butan-2-yl)-4-((E)-4,4,4-trifluoro-3-(3,4,5-trichlorophenyl)but-1-en-1-yl)-2-(trifluoromethyl)benzamide] | 50 to 100% | 50 to 100%
4 | CC(C)[C@H](CS(=O)(=O)CC(F)(F)F)NC(=O)c1ccc(/C=C/C(c2cc(Cl)c(Cl)c(Cl)c2)C(F)(F)F)cc1C(F)(F)F (stereo partly drawn) [F16, N—((R)-3-Methyl-1-((2,2,2-trifluoroethyl)sulfonyl)butan-2-yl)-4-((E)-4,4,4-trifluoro-3-(3,4,5-trichlorophenyl)but-1-en-1-yl)-2-(trifluoromethyl)benzamide] | 50 to 100% | 50 to 100%
5 | CC[C@H](CS(=O)(=O)CC(F)(F)F)NC(=O)c1ccc(/C=C/C(c2cc(Cl)c(Cl)c(Cl)c2)C(F)(F)F)cc1C(F)(F)F (stereo partly drawn) [F17, 4-((E)-4,4,4-Trifluoro-3-(3,4,5-trichlorophenyl)but-1-en-1-yl)-N—((R)-1-((2,2,2-trifluoroethyl)sulfonyl)butan-2-yl)-2-(trifluoromethyl)benzamide] | 50 to 100% | 50 to 100%
6 | CC[C@H](C[S+]([O-])CC(F)(F)F)NC(=O)c1ccc(/C=C/C(c2cc(Cl)c(Cl)c(Cl)c2)C(F)(F)F)cc1C(F)(F)F (stereo partly drawn) [F18, 4-((E)-4,4,4-Trifluoro-3-(3,4,5-trichlorophenyl)but-1-en-1-yl)-N-((2R)-1-((2,2,2-trifluoroethyl)sulfinyl)butan-2-yl)-2-(trifluoromethyl)benzamide] | 50 to 100% | 50 to 100%
7 | CC[C@H](CS(=O)(=O)CC1CC1(F)F)NC(=O)c1ccc(/C=C/C(c2cc(Cl)c(Cl)c(Cl)c2)C(F)(F)F)cc1Br (stereo partly drawn) [F19, 2-Bromo-N-((2R)-1-(((2,2-difluorocyclopropyl)methyl)sulfonyl)butan-2-yl)-4-((E)-4,4,4-trifluoro-3-(3,4,5-trichlorophenyl)but-1-en-1-yl)benzamide] | 50 to 100% | 50 to 100%
8 | C[C@H](C[S+]([O-])CC(F)(F)F)NC(=O)c1ccc(/C=C/C(c2cc(Cl)c(Cl)c(Cl)c2)C(F)(F)F)cc1C(F)(F)F (stereo partly drawn) [F23, 4-((E)-4,4,4-Trifluoro-3-(3,4,5-trichlorophenyl)but-1-en-1-yl)-N-((2R)-1-((2,2,2-trifluoroethyl)sulfinyl)propan-2-yl)-2-(trifluoromethyl)benzamide] | 50 to 100% | 50 to 100%
9 | CCO/C(=C\C(c1cc(Cl)c(Cl)c(Cl)c1)C(F)(F)F)c1ccc(C(=O)N[C@H](C)CSCC(F)(F)F)c(C(F)(F)F)c1 (stereo partly drawn) [F29, 4-((Z)-1-ethoxy-4,4,4-trifluoro-3-(3,4,5-trichlorophenyl)but-1-en-1-yl)-N—((R)-1-((2,2,2-trifluoroethyl)thio)propan-2-yl)-2-(trifluoromethyl)benzamide] | 50 to 100% | 0%
